This note sets out measurements from PubChem BioAssay AID330 (DTP/NCI, 2004).

Several values for one entry are separate records, joined by “and”; a condition that tells them apart may be missing. Identical values can stand only once. Toxic doses and inconclusive results are not listed.

The assay concerns P388 leukemia ip, CD2F1 mice, survival T/C. The experiment in a line: NCI In Vivo Anticancer Drug Screen. Data for tumor model P388 Leukemia (intraperitoneal) in CD2F1 (CDF1) mice. The settings on record: endpoint: median survival time, higher = longer survival. The method in brief: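 Mice carrying the transplanted tumor received test compound or vehicle. Survival was recorded in each group, and the value is the treated-group measurement divided by that of the vehicle-treated control group.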

[1] abbreviates: dose: 50.0 mg/kg/injection, schedule: Q01DX005 (ip), vehicle: saline with Tween-80.
Setting [2] is: dose: 100.0 mg/kg/injection, schedule: Q01DX005 (ip), vehicle: saline with Tween-80.
[3] abbreviates: dose: 200.0 mg/kg/injection, schedule: Q01DX005 (ip), vehicle: saline with Tween-80.
The mark [4] stands for this setting: dose: 60.0 mg/kg/injection, schedule: Q01DX005 (ip), vehicle: saline with Tween-80.
[5] abbreviates: dose: 120.0 mg/kg/injection, schedule: Q01DX005 (ip), vehicle: saline with Tween-80.
Setting [6] is: dose: 100.0 mg/kg/injection, schedule: Q01DX009 (ip), vehicle: Klucel (hydroxypropylcellulose) (HPC).
Setting [7] is: dose: 100.0 mg/kg/injection, schedule: Q04DX003 (ip), vehicle: saline with Tween-80.
[8] abbreviates: dose: 50.0 mg/kg/injection, schedule: Q01DX005 (ip), vehicle: Klucel (hydroxypropylcellulose) (HPC).
[9] abbreviates: dose: 100.0 mg/kg/injection, schedule: Q01DX005 (ip), vehicle: Klucel (hydroxypropylcellulose) (HPC).
The mark [10] stands for this setting: dose: 200.0 mg/kg/injection, schedule: Q01DX005 (ip), vehicle: Klucel (hydroxypropylcellulose) (HPC).

In the case of `CC(C)CCCCCCCCCCCCC(=O)NCC(=O)NC1C(C)OC(Nc2ncnc3nc[nH]c23)C(O)C1O` (stereo unspecified), the T/C (dose: 0.13 mg/kg/injection, schedule: Q01DX009 (ip), vehicle: other) was 114 % of control; the T/C (dose: 0.25 mg/kg/injection, schedule: Q01DX009 (ip), vehicle: other) was 121 % of control; the T/C (dose: 0.5 mg/kg/injection, schedule: Q01DX009 (ip), vehicle: other) is 123 % of control; the T/C (dose: 1.0 mg/kg/injection, schedule: Q01DX009 (ip), vehicle: other) is 157 % of control and 163 % of control; the T/C (dose: 1.0 mg/kg/injection, schedule: Q01DX009 (oral), vehicle: distilled water + Tween-80) is 104 % of control; the T/C (dose: 2.0 mg/kg/injection, schedule: Q01DX009 (oral), vehicle: distilled water + Tween-80) was 102 % of control. For the same compound, the T/C reads like this: (dose: 4.0 mg/kg/injection, schedule: Q01DX009 (ip), vehicle: other) 97 % of control; (dose: 4.0 mg/kg/injection, schedule: Q01DX009 (oral), vehicle: distilled water + Tween-80) 105 % of control; (dose: 8.0 mg/kg/injection, schedule: Q01DX009 (oral), vehicle: distilled water + Tween-80) 103 % of control; (dose: 16.0 mg/kg/injection, schedule: Q01DX009 (oral), vehicle: distilled water + Tween-80) 104 % of control.
`Cc1ccc(C2(C(=O)C=[N+]=[N-])OC2(C)C)cc1` (stereo unspecified): the T/C runs as follows: (dose: 25.0 mg/kg/injection, schedule: Q01DX005 (ip), vehicle: saline with Tween-80) 99 % of control; under setting [1], 99 % of control; under setting [2], 115 % of control; under setting [3], 108 % of control.
On to `C=CN=NNc1ccc(OC)cc1`, for which the T/C runs as follows: (dose: 100.0 mg/kg/injection, schedule: Q04DX003 (ip), vehicle: saline + Tween-80 + alcohol) 116 % of control; (dose: 200.0 mg/kg/injection, schedule: Q04DX003 (ip), vehicle: saline + Tween-80 + alcohol) 106 % of control.
Regarding `Clc1nc(Cl)nc(Nc2ccc(-c3cc4ccc(-c5ncc[nH]5)cc4[nH]3)cc2)n1`, the T/C (dose: 60.0 mg/kg/injection, schedule: Q01DX005 (ip), vehicle: Klucel (hydroxypropylcellulose) (HPC)) is 100 % of control; the T/C (dose: 120.0 mg/kg/injection, schedule: Q01DX005 (ip), vehicle: Klucel (hydroxypropylcellulose) (HPC)) is 100 % of control; the T/C (dose: 240.0 mg/kg/injection, schedule: Q01DX005 (ip), vehicle: Klucel (hydroxypropylcellulose) (HPC)) was 105 % of control.
Take `COc1ccc(N(Cc2ccc(C)o2)C(=S)Nc2ccccc2)cc1`: the T/C is 98 % of control under setting [4]; 102 % of control under setting [5]; 105 % of control (dose: 240.0 mg/kg/injection, schedule: Q01DX005 (ip), vehicle: saline with Tween-80).
In the case of `COc1ccc(CC#N)c(OC)c1`, the T/C was 102 % of control (dose: 12.5 mg/kg/injection, schedule: Q01DX009 (ip), vehicle: other) and 102 % of control (dose: 25.0 mg/kg/injection, schedule: Q01DX009 (ip), vehicle: other).
In the case of `COc1ccc(C2CC(c3ccccc3)=Nc3ccccc3S2)cc1OC` (stereo unspecified), the T/C is 102 % of control (dose: 50.0 mg/kg/injection, schedule: Q01DX009 (ip), vehicle: Klucel (hydroxypropylcellulose) (HPC)); 90 % of control under setting [6]; 96 % of control (dose: 200.0 mg/kg/injection, schedule: Q01DX009 (ip), vehicle: Klucel (hydroxypropylcellulose) (HPC)).
With `CCCc1nc2ccccc2c(=O)n1/N=C/c1ccsc1`, the T/C under setting [7] was 100 % of control; the T/C (dose: 200.0 mg/kg/injection, schedule: Q04DX003 (ip), vehicle: saline with Tween-80) was 90 % of control; the T/C (dose: 400.0 mg/kg/injection, schedule: Q04DX003 (ip), vehicle: saline with Tween-80) was 90 % of control.
Take `CNC(=S)C#N`: the T/C reads like this: (dose: 25.0 mg/kg/injection, schedule: Q01DX005 (ip), vehicle: saline + Tween-80 + alcohol) 122 % of control; (dose: 50.0 mg/kg/injection, schedule: Q01DX005 (ip), vehicle: saline + Tween-80 + alcohol) 111 % of control and 119 % of control; (dose: 100.0 mg/kg/injection, schedule: Q01DX005 (ip), vehicle: saline + Tween-80 + alcohol) 119 % of control.
Regarding `CC(O)c1cccc(C(C)(C)O)c1Sc1c(C(C)(C)O)cccc1C(C)(C)O` (stereo unspecified), the T/C runs as follows: (dose: 100.0 mg/kg/injection, schedule: Q04DX003 (ip), vehicle: Klucel (hydroxypropylcellulose) (HPC)) 99 % of control; (dose: 200.0 mg/kg/injection, schedule: Q04DX003 (ip), vehicle: Klucel (hydroxypropylcellulose) (HPC)) 98 % of control; (dose: 400.0 mg/kg/injection, schedule: Q04DX003 (ip), vehicle: Klucel (hydroxypropylcellulose) (HPC)) 97 % of control.
Consider `CC1(C)NC(=O)[C@]2(C[C@@H](O)C=C2CO)O1`, for which the T/C is, setting by setting: (dose: 25.0 mg/kg/injection, schedule: Q01DX005 (ip), vehicle: saline) 94 % of control; (dose: 50.0 mg/kg/injection, schedule: Q01DX005 (ip), vehicle: saline) 99 % of control; (dose: 100.0 mg/kg/injection, schedule: Q01DX005 (ip), vehicle: saline) 93 % of control.
`CC(C)(C)[NH2+][B-](F)(F)F`: the T/C was 94 % of control (dose: 6.25 mg/kg/injection, schedule: Q01DX005 (ip), vehicle: saline) and 103 % of control (dose: 12.5 mg/kg/injection, schedule: Q01DX005 (ip), vehicle: saline).
For the compound `CC[N+](C)(CC)C/C(C)=C(/c1ccccc1S(=O)(=O)N(C)C)C(C)C[N+](C)(CC)CC` (stereo unspecified), the T/C is 102 % of control (dose: 12.5 mg/kg/injection, schedule: Q04DX003 (ip), vehicle: saline) and 103 % of control (dose: 25.0 mg/kg/injection, schedule: Q04DX003 (ip), vehicle: saline).
As to `NS(=O)(=O)c1ccc(Nc2c3ccccc3nc3cc(Cl)ccc23)cc1`, the T/C (dose: 6.25 mg/kg/injection, schedule: Q01DX009 (ip), vehicle: Klucel (hydroxypropylcellulose) (HPC)) was 98 % of control; the T/C (dose: 12.5 mg/kg/injection, schedule: Q01DX009 (ip), vehicle: Klucel (hydroxypropylcellulose) (HPC)) is 98 % of control; the T/C (dose: 25.0 mg/kg/injection, schedule: Q01DX009 (ip), vehicle: Klucel (hydroxypropylcellulose) (HPC)) was 90 % of control; the T/C under setting [6] is 86 % of control.
Regarding `CCOC(=O)c1nc(SC)sc1N`, the T/C runs as follows: under setting [4], 95 % of control; under setting [5], 102 % of control.
On to `CCN1C(=O)CC(SC2CC(=O)N(CC)C2=O)C1=O` (stereo unspecified), for which the T/C reads like this: under setting [8], 99 % of control; under setting [9], 95 % of control; under setting [10], 99 % of control.
On to `Cc1c([N+](=O)[O-])c(=O)oc2ccc3c(=O)ccoc3c12`, for which the T/C runs as follows: under setting [1], 98 % of control; under setting [2], 96 % of control; under setting [3], 99 % of control.
Consider `CN(Cc1ccco1)NC(=O)C(=O)NCc1ccco1`, for which the T/C is 97 % of control under setting [1] and 88 % of control under setting [3].
Consider `CC(C)OCCCNCC(=O)Nc1ccc(S(=O)(=O)c2ccc(NC(=O)CNCCCOC(C)C)cc2)cc1`, for which the T/C was 95 % of control under setting [8], 100 % of control under setting [9] and 100 % of control under setting [10].
Regarding `O=C([O][Hg][CH2]C1COC([CH2][Hg][O]C(=O)c2ccccc2)CO1)c1ccccc1` (stereo unspecified), the T/C is 120 % of control (dose: 25.0 mg/kg/injection, schedule: Q01DX009 (ip), vehicle: saline with Tween-80); 104 % of control (dose: 25.0 mg/kg/injection, schedule: Q04DX003 (ip), vehicle: saline with Tween-80); 120 % of control (dose: 50.0 mg/kg/injection, schedule: Q01DX009 (ip), vehicle: saline with Tween-80); 90 % of control (dose: 50.0 mg/kg/injection, schedule: Q04DX003 (ip), vehicle: saline with Tween-80); 95 % of control under setting [7].
In the case of `O=C1C=CC2(CCC23C=CC(=O)O3)O1` (stereo unspecified), the T/C was 98 % of control (dose: 10.0 mg/kg/injection, schedule: Q01DX009 (ip), vehicle: Klucel (hydroxypropylcellulose) (HPC)); 106 % of control (dose: 20.0 mg/kg/injection, schedule: Q01DX009 (ip), vehicle: Klucel (hydroxypropylcellulose) (HPC)); 106 % of control (dose: 40.0 mg/kg/injection, schedule: Q01DX009 (ip), vehicle: Klucel (hydroxypropylcellulose) (HPC)).
On to `CC(C)C(CO)NC(=O)c1ccccc1` (stereo unspecified), for which the T/C (dose: 100.0 mg/kg/injection, schedule: Q04DX002 (ip), vehicle: Klucel (hydroxypropylcellulose) (HPC)) is 95 % of control; the T/C (dose: 200.0 mg/kg/injection, schedule: Q04DX002 (ip), vehicle: Klucel (hydroxypropylcellulose) (HPC)) is 96 % of control; the T/C (dose: 400.0 mg/kg/injection, schedule: Q04DX002 (ip), vehicle: Klucel (hydroxypropylcellulose) (HPC)) was 95 % of control.
